Values joined by “and” are separate entries in the source; they are usually repeats but may differ in a detail not shown here. Equal values may be shown once.
Tested on: 454973-116-R2-J3-PDC complex spheroid viability
Assay: Anticancer human tumor 454973-116-R2-J3-PDC patient-derived pancreatic carcinoma cell line growth inhibition [POLQ]
Conditions: for viability, T/C: stronger effect = lower value
Protocol: Multicellular complex tumor spheroid response to Polymerase (POL) inhibitors (novobiocin, ART-558, RP6685) in combination with a variety of drugs and investigational agents in selected tumor cell lines
The POL inhibitors (novobiocin, ART-558, and RP6685) were evaluated both individually and in combination with standard of care and investigational anticancer small molecules within a complex spheroid model of solid tumors. . Complex spheroids include a stromal component modeled by human endothelial cells (HUVEC) and fibroblasts modeled by human mesenchymal stem cells (MSCs). The concentration ranges selected for each drug and investigational agent were based upon clinically achievable concentrations if the clinical Cmax of the agent was known.
Compounds. The drugs and investigational agents: novobiocin (NSC847541), ART-558 (NSC835418), RP-6685 (NSC848927), peposertib (NSC802822), ceralasertib (NSC780249), elimusertib (NSC800525), camonsertib (NSC841442), AZD-1390 (NSC803789), olaparib (NSC753686), talazoparib (NSC767125), rucaparib (NSC756644), sotorasib (NSC818433), MRTX-1133 (NSC836407), SN-38 (NSC673596), topotecan (NSC609699), epotoside (NSC141540), doxorubicin (NSC123127), gemcitabine (NSC613327), 5-fluorouracil (NSC19893), paclitaxel (NSC125973), vemurafenib (NSC761431), MSA-2 (NSC828583), SN-011 (NSC837082), adavosertib (NSC754352), prexasertib (NSC758257), carboplatin (NSC241240) and oxaliplatin (NSC266046), were obtained from the National Cancer Institute (NCI) Developmental Therapeutics Program Chemical Repository (21). The FDA-approved anticancer drug set is available from the Developmental Therapeutics Program at https://dtp.cancer.gov/organization/dscb/obtaining/. […] The stock solutions were prepared in dimethyl sulfoxide (DMSO, Sigma-Aldrich, St. Louis, MO, cat. D2650), except for the platinum compounds which were prepared in saline (Quality Biological, Gaithersburg, MD, cat. 114-055-101), at 800-fold the tested concentration and stored at -70 degrees C prior to their use. All drugs and investigational agents were tested over a range starting from a high concentration at or near the clinical Cmax and decreasing in half-log increments. If the clinical Cmax for an agent had not been determined, the highest concentration tested was 10 microM, except for SN-38, which was tested at a high concentration of 1 microM.
Cell Culture. All cells were maintained in an incubator at 37 degrees C and 5% CO2 with 95% humidity. The PDC lines were cultured according to standard operating procedures established by the NCI PDMR (https://pdmr.cancer.gov). Table 3 of the manuscript, lists the cell lines along with the number of the three cell types plated to form the mct-spheroids and media for tumor cell growth. After thawing, all PDC lines, except 997537-175-T-J1-PDC and 415267-285-R-J2-PDC, were cultured in Matrigel-coated flasks prepared with a working solution of 1X Ham's F-12 nutrient mix, without supplementation (Thermo Fisher Scientific, cat. 11765054), 100 U/mL penicillin-streptomycin (Thermo Fisher Scientific, cat. 15140122), and 2.5% Matrigel (Corning Inc., Corning, NY, cat. 354248) for the first three passages. The two PDC lines 997537-175-T-J1-PDC and 415267-285-R-J2-PDC were cultured on uncoated flasks. The 857933-349-R-J2-PDC line was cultured in 6C/Colon 1B media containing advanced DMEM/F-12 (Thermo Fisher Scientific, cat. 12634028), 10 mM HEPES (Thermo Fisher Scientific, cat. 15630080), 1X GlutaMAX supplement (Thermo Fisher Scientific, cat. 35050061), 0.1 mg/mL primocin (InvivoGen, San Diego, CA, cat. ant-pm-2), 10% defined fetal bovine serum, heat inactivated (HyClone Laboratories Inc., Logan, UT, cat. SH30070.03HI), 50% L-WRN conditioned media (ATCC, cat. CRL-3276), 1.25 mM N-Acetyl-L-cysteine (Sigma-Aldrich, cat. A9165), 10 mM nicotinamide (Sigma-Aldrich, cat. N0636), 1X B-27 supplement (Thermo Fisher Scientific, cat. 17504044), 1X N-2 supplement (Thermo Fisher Scientific, cat. […]
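Also: spheroids exposed to drugs for seven days before measurement.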
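For viability, T/C in this document: percent viability relative to DMSO vehicle control wells taken as 100%.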

Cc1cccc(N(C)C(=O)C2C(O)CCN2c2nc(C)cc(C(F)(F)F)c2C#N)c1 (stereo unspecified)
viability, T/C (compound 0.0316 µM): 106% [middle of 13 runs] | viability, T/C (compound 0.1 µM): 108% [middle of 13 runs] | viability, T/C (compound 0.316 µM): 107% [middle of 13 runs] | viability, T/C (compound 1 µM): 100% [middle of 13 runs] | viability, T/C (compound 3.16 µM): 104% [middle of 13 runs] | viability, T/C (compound 10 µM): 107% [middle of 13 runs] | IC50 (compound alone, run of 10/31/2023): > 10000 nM | IC50 (compound alone, run of 11/06/2023): > 10000 nM

CC1COCCN1c1cc(C2(O)CC3CCC(C2)O3)c2cnn(-c3ccn[nH]3)c2n1 (stereo unspecified) + Nc1ccc(C#CCN(C(=O)Cc2ncc(C(F)(F)F)cc2C(F)(F)F)c2ccc(F)cc2)nn1
IC50 (curve of first compound, second compound 0.0316 µM): 120 nM | IC50 (curve of first compound, second compound 0.1 µM): 114 nM | IC50 (curve of first compound, second compound 0.316 µM): 86.8 nM | IC50 (curve of first compound, second compound 1 µM): 95.2 nM | IC50 (curve of first compound, second compound 3.16 µM): 104 nM | IC50 (curve of first compound, second compound 10 µM): 108 nM | viability, T/C (second compound 0.0316 µM, first compound 0.0316 µM): 83.7% | viability, T/C (second compound 0.0316 µM, first compound 0.1 µM): 55.6% | viability, T/C (second compound 0.0316 µM, first compound 0.316 µM): 21% | viability, T/C (second compound 0.0316 µM, first compound 1 µM): 12.5% | viability, T/C (second compound 0.0316 µM, first compound 3.16 µM): 16.3% | viability, T/C (second compound 0.0316 µM, first compound 10 µM): 10.3% | viability, T/C (second compound 0.1 µM, first compound 0.0316 µM): 84.1% | viability, T/C (second compound 0.1 µM, first compound 0.1 µM): 54% | viability, T/C (second compound 0.1 µM, first compound 0.316 µM): 19.8% | viability, T/C (second compound 0.1 µM, first compound 1 µM): 12.3% | viability, T/C (second compound 0.1 µM, first compound 3.16 µM): 15.2% | viability, T/C (second compound 0.1 µM, first compound 10 µM): 13% | viability, T/C (second compound 0.316 µM, first compound 0.0316 µM): 87.1% | viability, T/C (second compound 0.316 µM, first compound 0.1 µM): 44.8% | viability, T/C (second compound 0.316 µM, first compound 0.316 µM): 18.7% | viability, T/C (second compound 0.316 µM, first compound 1 µM): 11.5% | viability, T/C (second compound 0.316 µM, first compound 3.16 µM): 14.3% | viability, T/C (second compound 0.316 µM, first compound 10 µM): 11.2% | viability, T/C (second compound 1 µM, first compound 0.0316 µM): 80.4% | viability, T/C (second compound 1 µM, first compound 0.1 µM): 48.6% | viability, T/C (second compound 1 µM, first compound 0.316 µM): 15.4% | viability, T/C (second compound 1 µM, first compound 1 µM): 11% | viability, T/C (second compound 1 µM, first compound 3.16 µM): 13.4% | viability, T/C (second compound 1 µM, first compound 10 µM): 11.7% | viability, T/C (second compound 3.16 µM, first compound 0.0316 µM): 88.1% | viability, T/C (second compound 3.16 µM, first compound 0.1 µM): 51.1% | viability, T/C (second compound 3.16 µM, first compound 0.316 µM): 20.9% | viability, T/C (second compound 3.16 µM, first compound 1 µM): 10.7% | viability, T/C (second compound 3.16 µM, first compound 3.16 µM): 15.2% | viability, T/C (second compound 3.16 µM, first compound 10 µM): 10.3% | viability, T/C (second compound 10 µM, first compound 0.0316 µM): 91.6% | viability, T/C (second compound 10 µM, first compound 0.1 µM): 52.4% | viability, T/C (second compound 10 µM, first compound 0.316 µM): 14.7% | viability, T/C (second compound 10 µM, first compound 1 µM): 9.37% | viability, T/C (second compound 10 µM, first compound 3.16 µM): 11.2% | viability, T/C (second compound 10 µM, first compound 10 µM): 10.2%

COc1cccc2c1C(=O)c1c(O)c3c(c(O)c1C2=O)CC(O)(C(=O)CO)CC3OC1CC(N)C(O)C(C)O1 (stereo unspecified)
viability, T/C (compound 0.0316 µM): 73.1% and 56.1% and 76.5% | viability, T/C (compound 0.1 µM): 29.5% and 17.3% and 24.4% | viability, T/C (compound 0.316 µM): 22.2% and 15.9% and 20.4% | viability, T/C (compound 1 µM): 9.63% and 3.16% and 7.36% | viability, T/C (compound 3.16 µM): 0.59% and 0.89% and 0.65% | viability, T/C (compound 10 µM): 0.49% and 0.17% and 1.33% | IC50 (curve of compound): 62.6 nM and 37.5 nM and 60.1 nM

O=c1[nH]cc(F)c(=O)[nH]1
viability, T/C (compound 0.0316 µM): 107% and 104% and 112% | viability, T/C (compound 0.1 µM): 103% and 102% and 99.7% | viability, T/C (compound 0.316 µM): 101% and 92.2% and 104% | viability, T/C (compound 1 µM): 99.9% and 71.4% and 92.9% | viability, T/C (compound 3.16 µM): 50.8% and 29.6% and 53.3% | viability, T/C (compound 10 µM): 32.6% and 40.2% and 36.8% | IC50 (curve of compound): 3340 nM and 1960 nM and 4010 nM

CCc1c2c(nc3ccc(O)cc13)-c1cc3c(c(=O)n1C2)COC(=O)[C@]3(O)CC
viability, T/C (compound 0.00316 µM): 34.1% and 23.5% and 36.2% | viability, T/C (compound 0.01 µM): 12.7% and 10.6% and 14.8% | viability, T/C (compound 0.0316 µM): 13% (2×) and 7.69% | viability, T/C (compound 0.1 µM): 5.61% and 3.22% and 6.06% | viability, T/C (compound 0.316 µM): 2.43% and 3.16% and 3.18% | viability, T/C (compound 1 µM): 1.57% and 1.32% and 2.53% | IC50 (curve of compound): < 3.16 nM

Source: PubChem BioAssay AID1963846 (Molecular Pharmacology Branch, DTP, NCI, 2024)
